Measurements as given in patent publication US12002595B2, “Separation of metal ions by liquid-liquid extraction” (priority 2016, dated 2024).
Read-outs that look alike come from different tables or passages of the source.

Legend:
[1] = Extraction by HDEHP at constant pH with 3,4,3-LI(1,2-HOPO) as hold-back reagent; conditions: 1 mM ligand; for % Extraction: 0.1 M HNO3/1.9 M NaNO3, extraction of ^242Plutonium(IV); for SF Am^3+/Pu^4+: to be seen as lower limit
Method: In FIG. 26, aqueous phase: [ligand]=1 mM, buffer 0.1 M HNO3/1.9 M NaNO3. Organic phase: HDEHP diluted in kerosene. [HDEHP]=0.05, 0.10, 0.25, 0.50, 1.0, or 2.0 M. T=25° C. Volume organic phase/Volume aqueous phase=1. Initial metal concentrations: [Pu-242]=10 μM, [Am-243]=0.25 μM, or [Gd-153]=0.16 nM. Phases analyzed after one contact. Contact time: 30 min.
The separation factor values given here must been seen as lower limit since the extraction of Pu(IV) is near zero.

[2] = Persistence of the metal complex versus acidity; assay type: binding; conditions: Zr^4+
[3] = Am^3+; 25° C.; cited from earlier work
[4] = cited from earlier work
[5] = Gd^3+; 25° C.; cited from earlier work
[6] = Persistence of the metal complex versus acidity; assay type: binding; conditions: Hf^4+
[7] = Th^4+; 25° C.; cited from earlier work
[8] = Lu^3+; 25° C.; cited from earlier work
[9] = Stability constant (log β) of ligand-metal complexes; assay type: binding; conditions: Log β110 (Th^4+) versus Log β110 (Eu^3+)
Method: Solution Thermodynamics. All titrant solutions were degassed by boiling for 1 h while being purged under Ar. Carbonate-free 0.1 M KOH was prepared from concentrate (J. T Baker Dilut-It) and was standardized by titrating against 0.1 M potassium hydrogen phthalate (99.95%, Sigma Aldrich). Solutions of 0.1 M HCl were similarly prepared and were standardized by titrating against TRIS (99.9%, J. T. Baker). The glass electrode (Metrohm—Micro Combi—response to [H+]) used for the pH measurements was calibrated at 25.0° C. and at an ionic strength of 0.1 M (KCl) before each potentiometric or spectrophotometric titration. The calibration data were analyzed using the program GLEE (Gans & O'Sullivan, Talanta, 2000, 51 (1): 33-37) to refine for the E° and slope. All thermodynamic measurements were conducted at 25.0° C., in 0.1 M KCl supporting electrolyte under positive Ar gas pressure. The automated titration system was controlled by an 867 pH Module (Metrohm). Two-milliliter Dosino 800 burets (Metrohm) dosed the titrant (0.1 M KOH or 0.1 M HCl) into the thermostated titration vessel (5-90 mL). UV-visible spectra were acquired with an Ocean Optics USB4000-UV-vis spectrometer equipped with a TP-300 dip probe (Ocean Optics; path length of 10 mm), fiber optics and a DH-2000 light source (deuterium and halogen lamps). The fully automated titration system and the UV-vis spectrophotometer were coordinated by LBNL titration system, a computer program developed in house.
Incremental Spectrophotometric Titrations. This method was used to determine the protonation constants of 3,4,3-LI(CAM) as well as the stability constants of its complexes formed with Eu(III), Zr(IV) and ^232Th(IV). The experimental titration setup is similar to previously described systems (Sturzbecher-Hoehne, et al., Radiochimica Acta., 2013, 101 (6): 359-366). For the 3,4,3-LI(CAM) protonation (and Eu(III)-3,4,3-LI(CAM) complexes), titrations were performed with an initial concentration of 50 μM of 3,4,3-LI(CAM) (and 50 μM of Eu(III)) resulting in absorbance values included between 0 and 1.0 throughout the titration. Typically, 9 mL of a sample containing 3,4,3-LI(CAM) (and Eu(III)) and the supporting electrolyte (KCl/HCl) were incrementally perturbed by addition of 0.025 mL of carbonate-free 0.1 M KOH followed by a time delay of 80 s. Buffering of the solution was ensured by the addition of 10 mM of HEPES, 10 mM of CHES and 10 mM of MES. Between 130 and 250 data points were collected per titration, each data point including a pH measurement and a UV-Vis spectrum (250-450 nm) over the pH range 1.5 to 12.0. All spectra were corrected for dilution before data fitting. The entire procedure (electrode calibrate, titration and data treatment) was performed independently five times for the protonation constants and four times for the Eu(III)-3,4,3-LI(CAM) complexes. For the Zr(IV) and Th(IV) complexes, titrations were performed similarly but in the presence of DTPA to avoid the formation of metal hydroxides at low pH, before the uptake by 3,4,3-LI(CAM). For each metal, three titrations were performed independently in the presence of 1.1 to 40 equivalents of DTPA.
Data Treatment. […] All metal and chelator concentrations were held at estimated values determined from the volume of standardized stock solutions. All species formed with 3,4,3-LI(CAM) were considered to have significant absorbance to be observed in the UV-vis spectra and were therefore included in the refinement process. […]

[10] = Persistence of the metal complex versus acidity; assay type: binding; conditions: Ti^4+
[11] = UO2^2+; 25° C.; cited from earlier work

## O=C(NCCCN(CCCCN(CCCNC(=O)c1cccc(=O)n1O)C(=O)c1cccc(=O)n1O)C(=O)c1cccc(=O)n1O)c1cccc(=O)n1O [3,4,3-LI(1,2-HOPO)]
[1]; HDEHP 0.05 M
  % Extraction: 0.02%
  SF Am^3+/Pu^4+: 14
[1]; HDEHP 0.10 M
  % Extraction: 0.02%
  SF Am^3+/Pu^4+: 84
[1]; HDEHP 0.25 M
  % Extraction: 0.05%
  SF Am^3+/Pu^4+: 236
[1]; HDEHP 0.50 M
  % Extraction: 0.03%
  SF Am^3+/Pu^4+: 1450
[1]; HDEHP 1.00 M
  % Extraction: 0.16%
  SF Am^3+/Pu^4+: 624
[1]; HDEHP 2.00 M
  % Extraction: 0.21%
  SF Am^3+/Pu^4+: 649
[2]
  acidity range over which the ligand stays bound: from pH 8 to strongly acidic solutions (at least 6 M HCl)
[3]
  log βML: 20.4 ± 0.2
[4]
  Last pKa: 6.64
[4]; literature value compared with ΣpKa5-8 of 3,4,3-LI(CAM)
  overall acidity (ΣpKa): 21.2
[5]
  log βML: 20.5 ± 0.1
[6]
  acidity range over which the ligand stays bound: from pH 8 to strongly acidic solutions (at least 6 M HCl)
[7]
  log βML: 40.1 ± 0.5
[8]
  log βML: 21.2 ± 0.1
[9]
  Δ log β: 19.9
[10]
  acidity range over which the ligand stays bound: from pH 6 to 10 M HCl (at least)
[11]
  log βML: 18.0 ± 0.4

## O=C(O)CN(CCN(CC(=O)O)CC(=O)O)CCN(CC(=O)O)CC(=O)O [DTPA, Diethylenetriaminepentaacetic acid, reference compound]
[4]
  Last pKa: 10.4
[9]
  Δ log β: 6.3
